In ChEMBL document CHEMBL1201862, “PubChem BioAssay data set” (2004):
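Results reflect a 48-hour exposure of cells in 96-well plates to compound at five concentrations. Here, GI50 denotes the concentration required for 50% inhibition of growth.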 The source made the active and inactive calls. Cut-off read from the data, not from the text of the source: active = GI50 up to about 1.1 µM and inactive = higher.

Legend:
Assay in all cases: NCI-60 cell line screen, 48 h
[1] = test system: 786-0
[2] = test system: A498
[3] = test system: A549
[4] = test system: ACHN
[5] = test system: BT-549
[6] = test system: CAKI-1
[7] = test system: CCRF-CEM
[8] = test system: COLO 205
[9] = test system: EKVX
[10] = test system: HCC 2998
[11] = test system: HCT-116
[12] = test system: HCT-15
[13] = test system: HL-60
[14] = test system: HOP-62
[15] = test system: HOP-92
[16] = test system: HT-29
[17] = test system: Hs-578T
[18] = test system: IGROV-1
[19] = test system: K562
[20] = test system: KM12
[21] = test system: LOX IMVI
[22] = test system: M14
[23] = test system: MCF7
[24] = test system: MDA-MB-231
[25] = test system: MDA-MB-435
[26] = test system: MDA-N
[27] = test system: MOLT-4
[28] = test system: Malme-3M
[29] = test system: NCI-H226
[30] = test system: NCI-H23
[31] = test system: NCI-H460
[32] = test system: NCI/ADR-RES
[33] = test system: OVCAR-3
[34] = test system: OVCAR-4
[35] = test system: OVCAR-5
[36] = test system: OVCAR-8
[37] = test system: PC-3
[38] = test system: RPMI-8226
[39] = test system: RXF 393
[40] = test system: SF-268
[41] = test system: SF-295
[42] = test system: SF-539
[43] = test system: SK-MEL-28
[44] = test system: SK-MEL-2
[45] = test system: SK-MEL-5
[46] = test system: SK-OV-3
[47] = test system: SN12C
[48] = test system: SNB-19
[49] = test system: SNB-75
[50] = test system: SW-620
[51] = test system: T47D
[52] = test system: TK-10
[53] = test system: U-251
[54] = test system: UACC-257
[55] = test system: UACC-62
[56] = test system: UO-31

In the case of `CCCCCCCCOP(=O)(O)OP(=O)(O)OCC1OC(n2ccc(N)nc2=O)C(O)C1O` (stereo unspecified), the GI50 [1] was > 100 µM (inactive), the GI50 [2] was > 100 µM (inactive) and the GI50 [3] was > 100 µM (inactive). For the same compound, the GI50 [4] was > 100 µM (inactive), the GI50 [5] was > 100 µM (inactive) and the GI50 [6] was > 100 µM (inactive). The GI50 [7] was > 100 µM (inactive), the GI50 [8] was > 100 µM (inactive) and the GI50 [9] was > 100 µM (inactive). For the same compound, the GI50 [10] was > 100 µM (inactive), the GI50 [11] was > 100 µM (inactive) and the GI50 [12] was > 100 µM. The GI50 [13] was > 100 µM (inactive), the GI50 [14] was > 100 µM (inactive) and the GI50 [15] was > 100 µM (inactive). For the same compound, the GI50 [16] was > 100 µM (inactive), the GI50 [17] was > 100 µM (inactive) and the GI50 [18] was > 100 µM (inactive). The GI50 [19] was > 100 µM (inactive), the GI50 [20] was > 100 µM (inactive) and the GI50 [21] was > 100 µM (inactive). For the same compound, the GI50 [22] was > 100 µM (inactive), the GI50 [23] was > 100 µM (inactive) and the GI50 [24] was > 100 µM (inactive). For the same compound, the GI50 [25] was > 100 µM (inactive), the GI50 [26] was > 100 µM (inactive) and the GI50 [27] was > 100 µM (inactive). The GI50 [28] was > 100 µM (inactive), the GI50 [29] was > 100 µM (inactive) and the GI50 [30] was > 100 µM (inactive). The GI50 [31] was > 100 µM (inactive), the GI50 [32] was > 100 µM (inactive) and the GI50 [33] was > 100 µM (inactive). The GI50 [34] was > 100 µM (inactive), the GI50 [35] was > 100 µM (inactive) and the GI50 [36] was > 100 µM (inactive). The GI50 [37] was > 100 µM (inactive), the GI50 [38] was > 100 µM (inactive) and the GI50 [39] was > 100 µM (inactive). For the same compound, the GI50 [40] was > 100 µM (inactive), the GI50 [41] was > 100 µM (inactive) and the GI50 [42] was > 100 µM (inactive). For the same compound, the GI50 [43] was > 100 µM (inactive), the GI50 [44] was > 100 µM (inactive) and the GI50 [45] was > 100 µM (inactive). The GI50 [46] was > 100 µM (inactive), the GI50 [47] was > 100 µM (inactive) and the GI50 [48] was > 100 µM (inactive). For the same compound, the GI50 [49] was > 100 µM (inactive), the GI50 [50] was > 100 µM (inactive) and the GI50 [51] was > 100 µM (inactive). For the same compound, the GI50 [52] was > 100 µM (inactive), the GI50 [53] was > 100 µM (inactive) and the GI50 [54] was > 100 µM (inactive). The GI50 [55] was > 100 µM (inactive) and the GI50 [56] was > 100 µM (inactive).
